The subject of one data set is HeLa cells. In words: Cytotoxicity in HeLa cells, ATP content measured with the ATPlite kit. It counts as cell-based.
The test system of the next data set is rgRSV224 virus. Description: Antiviral activity: inhibition of rgRSV224 (GFP-expressing RSV) replication in HeLa cells, GFP expression read-out. Type of data set: cell-based, respiratory syncytial virus (RSV). The note with it: for RSV HELA pEC50: rgRSV224 virus (MOI=1) in HeLa cells, GFP read-out. The essentials: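 HeLa cells (3,000/well) were infected with GFP-expressing rgRSV224 (MOI=1) in the presence of 9 serial 4-fold compound dilutions (0.05% DMSO) and incubated at 37° C, 5% CO2. After three days, GFP expression was measured by laser microscopy. EC50 is the concentration giving 50% inhibition of GFP expression.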

Data set [1] in a line: Cytotoxicity in HeLa cells, ATP content measured with the ATPlite kit. The note with it: human, TOX HELA pCC50. Type of data set: cell-based. A general note: Cellular ATP, detected with luciferase, serves as a proxy for viable cell number.

“And” between values parts separate entries of the source, which are not always exact repeats. Identical values can stand only once. Like-named read-outs stand apart in the source and are kept apart here. A value given as a limit tells only on which side of the number the result lay.

These results are taken from US11084826B2, “RSV antiviral pyrazolo- and triazolo-pyrimidine compounds” (Janssen Sciences Ireland Unlimited Company, priority 2015, dated 2021).

Take `CCc1cc(C(=O)N2CCCCC[C@H]2C)nc2cc(-c3ccc(/C=C/C(=O)O)cc3F)nn12` [Compound M7]: in the data set with HeLa cells, the “TOX HELA pCC50” value is on record as under 4.60. Besides, in the data set on rgRSV224 virus, the “RSV HELA pEC50” value was 7.00.
In the same order, the values of `CCc1cc(C(=O)N2CCc3sccc3[C@H]2C)nc2cc(-c3ccc(-c4ccc(C(=O)O)cn4)cc3F)nn12` [Compound F63] are 4.35 and 7.34.
On to `CCc1cc(C(=O)N2CCn3cccc3C2C)nc2cc(-c3cccc(/C=C/C(=O)O)c3F)nn12` (stereo not shown) [Compound M45], for which, in the data set with HeLa cells, the “TOX HELA pCC50” value was under 4. Besides, the “RSV HELA pEC50” value in the data set with rgRSV224 virus came to 7.54.
In the same order, the values of `CC(C)Cc1cc(C(=O)N2CCCCC[C@H]2C)nc2cc(-c3ccc(N4CC[C@H](C(=O)O)C4)cc3F)nn12` [Compound W14] are 4.29 and 7.53.
For the compound `CCc1cc(C(=O)N2CCn3nccc3C2C)nc2cc(-c3ccc(C(N)=O)cc3F)nn12` (stereo not shown) [Compound I37], the “TOX HELA pCC50” value with HeLa cells is under 4.60. Moreover, the “RSV HELA pEC50” value in the data set on rgRSV224 virus was 6.24.
The like results for `CCc1cc(C(=O)N2CCc3ccccc3[C@H]2C)nc2cc(-c3ccc(C4C[C@H]4C(=O)O)cc3F)nn12` (stereo partly shown) [Compound O15] were, in that order, 4.32 and 7.91.
The like results for `CCc1cc(C(=O)N2CCn3c(C)ccc3C2C)nc2cc(-c3ccc(C(N)=O)cc3F)nn12` (stereo not shown) [Compound I36] were, in that order, under 4.60 and 6.58.
The like results for `CCc1cc(C(=O)N2CCCCC[C@H]2C)nc2cc(-c3ccc(OC)c(/C=C/C(=O)O)c3F)nn12` [Compound M34] were, in that order, under 4 and 7.04.
Take `C[C@@H]1CCCCCN1C(=O)c1cc(C2CC2)n2nc(-c3ccc(/C=C/C(=O)O)cc3F)cc2n1` [Compound M21]: the “TOX HELA pCC50” value in the data set with HeLa cells was found to be 4.34. Besides, the “RSV HELA pEC50” value in the data set on rgRSV224 virus stood at 7.16.
In the same order, the values of `CC1c2ccsc2CCN1C(=O)c1cc(C2(C)CC2)n2nc(-c3cccc(/C=C/C(=O)O)c3F)cc2n1` (stereo not shown) [Compound M47] are 4.07 and 7.87.
In the same order, the values of `CNc1cc(C(=O)N2CCc3ccccc3C2C)nc2cc(-c3ccc(/C=C/C(=O)O)cc3F)nn12` (stereo not shown) [Compound M8] are under 4.60 and 7.31.
For the compound `CCc1cc(C(=O)N2CCCCC[C@H]2C)nc2cc(-c3ccc4c(c3F)C=C(C(=O)O)CO4)nn12` [Compound F46], the “TOX HELA pCC50” value in the data set on HeLa cells is reported as under 4. Moreover, the “RSV HELA pEC50” value in the data set on rgRSV224 virus was 7.31.
In the same order, the values of `CCc1cc(C(=O)N2CCCC3(CC=CC3)C2C)nc2cc(-c3cccc(/C=C/C(=O)O)c3F)nn12` (stereo not shown) [Compound M39] are under 4 and 6.19.
The like results for `C[C@@H]1c2ccccc2CCN1C(=O)c1cc(C2(C)CC2)n2nc(-c3cccc(/C=C/C(=O)O)c3F)cc2n1` [Compound M36] were, in that order, 4.26 and 7.99.
With `CC(C)Cc1cc(C(=O)N2CCCCC[C@H]2C)nc2cc(-c3ccc(-n4cc(C(=O)O)cn4)cc3F)nn12` [Compound W13], the “TOX HELA pCC50” value in the data set with HeLa cells came to 4.38. In the data set on rgRSV224 virus, the “RSV HELA pEC50” value is 7.45.
In the same order, the values of `CN1CCCCCN1C(=O)c1cc(C2(C)CC2)n2nc(-c3cccc(/C=C/C(=O)O)c3F)cc2n1` [Compound M37] are under 4 and 7.10.
Regarding `CCCC(C)N(CC)C(=O)c1cc(CC)n2nc(-c3ccccc3F)cc2n1` (stereo not shown) [Compound A16], the “TOX HELA pCC50” value in the data set with HeLa cells is recorded as 4.45. In the data set on rgRSV224 virus, the “RSV HELA pEC50” value is 5.57.
The like results for `CCc1cc(C(=O)N2CCCCC[C@H]2C)nc2cc(-c3cccc(/C=C\C(=O)O)c3F)nn12` [Compound M31] were, in that order, under 4 and 6.13.
The like results for `CCc1cc(C(=O)N2CCc3ccccc3[C@H]2C)nc2cc(-c3ccc4cc(C(=O)O)ccc4c3F)nn12` [Compound F34] were, in that order, 4.17 and 7.46.
In the same order, the values of `C[C@@H]1CCCCCN1C(=O)c1cc(C2(C)CC2)n2nc(-c3cccc(/C=C/C(=O)O)c3F)cc2n1` [Compound M22] are 4.05 and 7.34.
With `CCCC(C)N(C)C(=O)c1cc(CC)n2nc(-c3cccc(/C=C/C(=O)O)c3F)cc2n1` (stereo not shown) [Compound M38], the “TOX HELA pCC50” value in the data set on HeLa cells is recorded as under 4. For the same compound, the “RSV HELA pEC50” value in the data set on rgRSV224 virus amounted to 6.65.
As for `CCc1cc(C(=O)N2CCCCCC2C)nc2cc(-c3ccccc3Cl)nn12` (stereo not shown) [Compound A3], the “TOX HELA pCC50” value in the data set with HeLa cells is listed as 4.40. Besides, the “RSV HELA pEC50” value in the data set on rgRSV224 virus was determined as 5.45.
As for `CCc1cc(C(=O)N2CCc3ccccc3[C@H]2C)nc2cc(-c3ccc4c(c3F)OCC(C(=O)O)=C4)nn12` [Compound F54], the “TOX HELA pCC50” value in the data set on HeLa cells is 4.75. Besides, the “RSV HELA pEC50” value in the data set with rgRSV224 virus was found to be 8.59.
In the same order, the values of `CCc1cc(C(=O)N2CCCCC[C@H]2C)nc2cc(-c3ccc(-c4nc(C(=O)O)ccc4F)cc3F)nn12` [Compound F20] are 4.30 and 7.07.
Take `CCc1cc(C(=O)N2CCCCCC2C)nc2cc(-c3ccc(NC(=O)OCC4CCCN4)cc3F)nn12` (stereo not shown) [Compound C3]: the “TOX HELA pCC50” value in the data set with HeLa cells (HeLa cells, cytotoxicity) was <4.60 and 4.89. Besides, the “RSV HELA pEC50” value in the data set on rgRSV224 virus was 6.78 and 6.55.
In the case of `CCc1cc(C(=O)N2CCCCC[C@H]2C)nc2cc(-c3ccc4c(c3F)OCC(C(=O)O)C4)nn12` (stereo partly shown) [Compound F42], the “TOX HELA pCC50” value in the data set with HeLa cells is listed as under 4. In addition, the “RSV HELA pEC50” value in the data set on rgRSV224 virus is 7.16.
The like results for `CC1CCCCCN1C(=O)c1cc(N2CCCC2)n2nc(-c3ccc(N(C)C)cc3)cc2n1` (stereo not shown) [Compound A19] were, in that order, 4.42 and 5.34.
In the same order, the values of `C[C@@H]1CCCCCN1C(=O)c1cc(C2(C)COC2)n2nc(-c3ccc(C4C[C@H]4C(=O)O)cc3F)cc2n1` (stereo partly shown) [Compound O17] are 4.11 and 7.29.
In the same order, the values of `CCc1cc(C(=O)N2CCCCC[C@H]2C)nc2cc(-c3ccc(C4=CCCC(C(=O)O)C4)cc3F)nn12` (stereo partly shown) [Compound F52] are 4.22 and 6.81.
As for `CCc1cc(C(=O)N2CCc3ccccc3C2C)nc2cc(-c3cc4cccnc4cc3F)nn12` (stereo not shown) [Compound A31], in the data set with HeLa cells, the “TOX HELA pCC50” value is under 4.60. The “RSV HELA pEC50” value in the data set on rgRSV224 virus was 6.20.
On to `CCc1cc(C(=O)N2CCCCCC2C)nc2cc(-c3ccc4[nH]c(=O)ccc4c3)nn12` (stereo not shown) [Compound A15], for which the “TOX HELA pCC50” value in the data set with HeLa cells is under 4.60. Moreover, the “RSV HELA pEC50” value in the data set on rgRSV224 virus is on record as 6.47.
In the same order, the values of `CCc1cc(C(=O)N2CCCCC[C@H]2C)nc2cc(-c3ccc4oc(C(=O)O)cc4c3F)nn12` [Compound F44] are 4.25 and 6.40.
The like results for `C[C@@H]1CCCCCN1C(=O)c1cc(N(C)C)n2nc(-c3ccc(/C=C/C(=O)O)cc3F)cc2n1` [Compound M4] were, in that order, under 4.60 and 6.80.
For `CCc1cc(C(=O)N2CCCCC[C@H]2C)nc2cc(-c3ccc(-n4cc(C(=O)O)cn4)cc3F)nn12` [Compound W2], the CC50 – broadly, the concentration giving 50% cytotoxicity – at 3 days in data set [1] was over 25.1 µM. The “TOX HELA pCC50” value in the data set on HeLa cells (human, 3 days) is 4.31.
For `CCc1cc(C(=O)N2CCCCC[C@H]2C)nc2cc(-c3ccc4c(c3F)OC[C@H](C(=O)O)C4)nn12` [Compound F64], the “TOX HELA pCC50” value with HeLa cells is reported as under 4. The “RSV HELA pEC50” value with rgRSV224 virus worked out at 7.12.
In the same order, the values of `C[C@@H]1CCCCCN1C(=O)c1cc(C2CC2)n2nc(-c3ccc(-c4ccc(C(=O)O)cn4)cc3F)cc2n1` [Compound F21] are 4.37 and 7.28.
In the same order, the values of `CCc1cc(C(=O)N2CCc3ccccc3C2C)nc2cc(-c3ccc(/C=C/C(=O)O)cc3Cl)nn12` (stereo not shown) [Compound M6] are under 4.60 and 6.84.
In the same order, the values of `CCc1cc(C(=O)N2CCCCCC2C)nc2cc(-c3ccc(N(C)C)cc3)nn12` (stereo not shown) [Compound A2] are under 4.60 and 5.52.
On to `CCc1cc(C(=O)N2CCCCCN2C)nc2cc(-c3cccc(/C=C/C(=O)O)c3F)nn12` [Compound M40], for which the “TOX HELA pCC50” value in the data set with HeLa cells is listed as under 4. Besides, in the data set with rgRSV224 virus, the “RSV HELA pEC50” value stood at 6.37.
`C[C@@H]1CCCCCN1C(=O)c1cc(C2CCC2)n2nc(-c3ccc(/C=C/C(=O)O)cc3F)cc2n1` [Compound M19] showed a CC50 at 3 days in data set [1] of 38.9 µM. The “TOX HELA pCC50” value in the data set on HeLa cells (human, 3 days) worked out at 4.49. Moreover, in the data set with rgRSV224 virus (human respiratory syncytial virus, HeLa, read-out: RSV HELA pEC50, rgRSV224 virus (MOI=1) in HeLa cells, GFP read-out (converted)), the EC50 is 0.0302 µM. Further, the “RSV HELA pEC50” value in the data set on rgRSV224 virus amounted to 7.72.
